The target of one test is CDK2 CycE1 kinase (Homo sapiens (Human), UniProt P24941). As to the kind of experiment: Determination of inhibitory activity against CDK2 CycE1 kinase. It is filed as biochemical. The method, then: CDK2 CycE1 kinase solution (concentration: 0.015 ng/μL) was added to assay wells at 6 μL/well, and different compounds dissolved in DMSO were added to the assay wells separately using a nanoliter pipettor, such that the final concentrations of the compounds were 300 nM to 0.07 nM. The wells were set in duplicate, and a control well was set. After incubation of the above system for 30 min, ATP (concentration: 50 μM or 5000 μM) was mixed with ULight-Myelin Basic Protein Peptide substrate (manufacturer: PerkinElmer, concentration: […]) at a ratio of 1:1, and the mixture was added to the assay wells at 4 μL/well. The resulting mixture was left to react at room temperature for 2 h, and then 5 μL of EDTA was added to terminate the reaction, followed by addition of 5 μL of a detection antibody (manufacturer: PerkinElmer, concentration: 8 nM). The mixture was incubated at room temperature for 1 h.

Another test concerns the target CDK2/CycA2 kinase (Homo sapiens (Human), UniProt P24941). As to the kind of experiment: Determination of inhibitory activity against CDK2/CycA2 kinase. It is filed as biochemical. The method, then: The wells were set in duplicate, and a control well was set. […] The resulting mixture was left to react at room temperature for 2 h, and then 5 µL of EDTA was added to terminate the reaction, followed by addition of 5 μL of a detection antibody (manufacturer: PerkinElmer, concentration: 8 nM). The mixture was incubated at room temperature for 1 h.

The mark [1] stands for this setting: read-out: CDK2/CycE1 10 μM ATP (kinase) IC50.
Setting [2] is: read-out: CDK2/CycA2 10 μM ATP (kinase) IC50.

Drawing on patent publication US20250084067A1, “PYRAZOLE-SUBSTITUTED CYCLOPENTANOL ESTER DERIVATIVE AND USE THEREOF” (CHIA TAI TIANQING PHARMACEUTICAL GROUP CO., LTD., priority 2022, published 2025), this text covers IC50 for 23 molecules.

Structures are written as SMILES. Where two headings read alike, the source gives them in different places.

With `CC(C)NC(=O)O[C@@H]1CC[C@H](c2cc(Nc3ccc(CN(C)C)cc3F)n[nH]2)C1` [Example 10], the IC50 on CDK2 CycE1 kinase (10 μM ATP) was less than 10 nM; against CDK2/CycA2 kinase (10 μM ATP), 10 to 50 nM.
On to `C[C@H](NC(=O)O[C@@H]1CC[C@H](c2cc(Nc3ccc4c(c3)CS(=O)(=O)C4)n[nH]2)C1)C(F)(F)F` [Example 63], for which the IC50 at CDK2 CycE1 kinase (setting [1]) and on CDK2/CycA2 kinase (setting [2]) was less than 10 nM throughout.
Consider `CC(C)NC(=O)O[C@@H]1CC[C@H](c2cc(Nc3ccc(C(N)=O)cc3)n[nH]2)C1` [Example 46], for which the IC50 against CDK2 CycE1 kinase (10 μM ATP) and against CDK2/CycA2 kinase (10 μM ATP) was less than 10 nM throughout.
For `CC(C)NC(=O)O[C@@H]1CC[C@H](c2cc(Nc3ccc(S(=O)(=O)NC4CC4)cn3)n[nH]2)C1` [Example 68], the IC50 at CDK2 CycE1 kinase (10 μM ATP) and against CDK2/CycA2 kinase (10 μM ATP) was less than 10 nM throughout.
`CC(C)NC(=O)O[C@@H]1CC[C@H](c2cc(Nc3ccc(NS(C)(=O)=O)cc3F)n[nH]2)C1` [Example 3]: the IC50 on CDK2 CycE1 kinase (10 μM ATP) and against CDK2/CycA2 kinase (10 μM ATP) was less than 10 nM each time.
In the case of `CC(C)NC(=O)O[C@@H]1CC[C@H](c2cc(Nc3ccc(NS(C)(=O)=O)c(OC(F)F)c3)n[nH]2)C1` [Example 71], the IC50 on CDK2 CycE1 kinase (setting [1]) and on CDK2/CycA2 kinase (setting [2]) was less than 10 nM each time.
With `COCCN(C=O)c1ccc(Nc2cc(C3CCC(OC(=O)NC(C)C)C3)[nH]n2)nc1` (stereo not shown) [Example 12], the IC50 on CDK2 CycE1 kinase (10 μM ATP) and at CDK2/CycA2 kinase (10 μM ATP) was 10 to 50 nM throughout.
As for `CC(C)NC(=O)O[C@@H]1CC[C@H](c2cc(Nc3ccc(NS(=O)(=O)C4CC4)cn3)n[nH]2)C1` [Example 8], the IC50 on CDK2 CycE1 kinase (10 μM ATP) and at CDK2/CycA2 kinase (10 μM ATP) was less than 10 nM each time.
As to `CC(C)NC(=O)O[C@@H]1CC[C@H](c2cc(Nc3cc(OC(F)(F)F)c(NS(C)(=O)=O)cn3)n[nH]2)C1` [Example 31], the IC50 on CDK2 CycE1 kinase (setting [1]) and on CDK2/CycA2 kinase (setting [2]) was less than 10 nM throughout.
In the case of `CC(C)NC(=O)O[C@@H]1CC[C@H](c2cc(Nc3ccc(NS(C)(=O)=O)c(Cl)c3)n[nH]2)C1` [Example 40], the IC50 against CDK2 CycE1 kinase (10 μM ATP) and on CDK2/CycA2 kinase (10 μM ATP) was less than 10 nM each time.
As for `CC(C)NC(=O)O[C@@H]1CC[C@H](c2cc(Nc3ccc(NS(C)(=O)=O)c(F)c3F)n[nH]2)C1` [Example 37], the IC50 against CDK2 CycE1 kinase (10 μM ATP) and against CDK2/CycA2 kinase (10 μM ATP) was less than 10 nM each time.
`CNC(=O)O[C@@H]1CC[C@H](c2cc(Nc3ccc4c(c3)CS(=O)(=O)C4)n[nH]2)C1` [Example 53]: the IC50 against CDK2 CycE1 kinase (10 μM ATP) and against CDK2/CycA2 kinase (10 μM ATP) was less than 10 nM each time.
With `CC(C)NC(=O)O[C@@H]1CC[C@H](c2cc(Nc3ccc(N(C)S(C)(=O)=O)cn3)n[nH]2)C1` [Example 2], the IC50 at CDK2 CycE1 kinase (10 μM ATP) and against CDK2/CycA2 kinase (10 μM ATP) was 10 to 50 nM throughout.
In the case of `CC(C)NC(=O)O[C@@H]1CC[C@H](c2cc(Nc3ccc(NS(C)(=O)=O)c(C(F)(F)F)c3)n[nH]2)C1` [Example 27], the IC50 against CDK2 CycE1 kinase (10 μM ATP) and at CDK2/CycA2 kinase (10 μM ATP) was less than 10 nM in each case.
Turning to `COc1nc(Nc2cc([C@H]3CC[C@@H](OC(=O)NC(C)C)C3)[nH]n2)ccc1NS(C)(=O)=O` [Example 45], the IC50 against CDK2 CycE1 kinase (10 μM ATP) and against CDK2/CycA2 kinase (10 μM ATP) was less than 10 nM throughout.
`CC(C)NC(=O)O[C@@H]1CC[C@H](c2cc(Nc3ccc(S(C)(=N)=O)c(F)c3)n[nH]2)C1` (stereo partly shown) [Example 70]: the IC50 on CDK2 CycE1 kinase (setting [1]) and at CDK2/CycA2 kinase (setting [2]) was less than 10 nM each time.
With `CC(C)NC(=O)O[C@@H]1CC[C@H](c2cc(Nc3ccc(NS(C)(=O)=O)cn3)n[nH]2)C1` [Example 1], the IC50 against CDK2 CycE1 kinase (10 μM ATP) and at CDK2/CycA2 kinase (10 μM ATP) was less than 10 nM each time.
Turning to `CC(C)NC(=O)O[C@@H]1CC[C@H](c2cc(Nc3ccc4c(c3)CCN4S(C)(=O)=O)n[nH]2)C1` [Example 51], the IC50 at CDK2 CycE1 kinase (10 μM ATP) was less than 10 nM; on CDK2/CycA2 kinase (10 μM ATP), 10 to 50 nM.
For the molecule `COc1cc(Nc2cc([C@H]3CC[C@@H](OC(=O)NC(C)C)C3)[nH]n2)ccc1NS(C)(=O)=O` [Example 55], the IC50 on CDK2 CycE1 kinase (10 μM ATP) and at CDK2/CycA2 kinase (10 μM ATP) was less than 10 nM throughout.
On to `CC(C)NC(=O)O[C@@H]1CC[C@H](c2cc(Nc3cc(F)c(NS(C)(=O)=O)cc3F)n[nH]2)C1` [Example 32], for which the IC50 against CDK2 CycE1 kinase (10 μM ATP) and at CDK2/CycA2 kinase (10 μM ATP) was less than 10 nM each time.
Take `CC(C)NC(=O)O[C@H]1CC[C@@H](c2cc(Nc3ccc(NS(C)(=O)=O)c(C(F)(F)F)c3)n[nH]2)C1` [Example 50]: the IC50 on CDK2 CycE1 kinase (10 μM ATP) and against CDK2/CycA2 kinase (10 μM ATP) was less than 10 nM throughout.
As for `CC(C)NC(=O)O[C@@H]1CC[C@H](c2cc(Nc3ccc(S(N)(=O)=O)c(Cl)n3)n[nH]2)C1` [Example 52], the IC50 against CDK2 CycE1 kinase (10 μM ATP) and at CDK2/CycA2 kinase (10 μM ATP) was less than 10 nM in each case.
As to `CC(C)NC(=O)O[C@@H]1CC[C@H](c2cc(Nc3ccc(S(N)(=O)=O)cc3)n[nH]2)C1` [Example 65], the IC50 against CDK2 CycE1 kinase (10 μM ATP) and against CDK2/CycA2 kinase (10 μM ATP) was less than 10 nM each time.
